Measurements: the supplement of paper PMC11061612

Experiments:
Assay in all cases: combination Emax (second highest fraction inhibited in the dose matrix, 72 h); higher = more inhibition; extreme values may be limits of the assay
[1] = test system: TE-5 (Esophageal Squamous Cell Carcinoma)
How it was run: (§1)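 Cell lines in DMEM/F12 or RPMI with 10% FBS were plated in 1536-well plates, held 24 hours at 37°C, 5% CO2, then given two-drug dose matrices for 72 hours (DMSO typically 0.2%). Viability was read by CellTiter-Glo 2.0 luminescence and scaled as inhibition from 0 (vehicle wells) to 1 (blank wells). Combination Emax is the second-highest inhibition in the matrix; Bliss excess is observed combination effect minus expected EA + EB − EA·EB, EA and EB being single-agent effects.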

[2] = test system: DMS-273 (Small Cell Lung Carcinoma)
How it was run: as §1

[3] = test system: OCI-AML2 (Acute Myeloid Leukemia)
How it was run: as §1

[4] = test system: NALM-6 (B-Lymphoblastic Leukemia)
How it was run: as §1

[5] = test system: MFH-ino (Other Solid Carcinomas)
How it was run: as §1

[6] = test system: COR-L23 (Non-Small Cell Lung Carcinoma)
How it was run: as §1

[7] = test system: NCI-H1793 (Lung Adenocarcinoma)
How it was run: as §1

ES7 (Ewing's Sarcoma) = test system: ES7 (Ewing's Sarcoma)
How it was run: as §1

[8] = test system: KM-H2 (Hodgkin's Lymphoma)
How it was run: as §1

NCI-H2369 (Mesothelioma) = test system: NCI-H2369 (Mesothelioma)
How it was run: as §1

[9] = test system: DOV13 (Ovarian Carcinoma)
How it was run: as §1

[10] = test system: CTV-1 (T-Lymphoblastic Leukemia)
How it was run: as §1

[11] = test system: MDA-MB-231 (Breast Carcinoma)
How it was run: as §1

[12] = test system: SW780 (Bladder Carcinoma)
How it was run: as §1

[13] = test system: SW1990 (Pancreatic Carcinoma)
How it was run: as §1

NCI-H2595 (Mesothelioma) = test system: NCI-H2595 (Mesothelioma)
How it was run: as §1

[14] = test system: MDA-MB-157 (Breast Carcinoma)
How it was run: as §1

[15] = test system: NCI-H1781 (Lung Adenocarcinoma)
How it was run: as §1

[16] = test system: LS-513 (Colorectal Carcinoma)
How it was run: as §1

[17] = test system: G-292-Clone-A141B1 (Osteosarcoma)
How it was run: as §1

| SMILES | combination Emax [1] | combination Emax [2] | combination Emax [3] | combination Emax [4] | combination Emax [5] | combination Emax [6] | combination Emax [7] | combination Emax (ES7 (Ewing's Sarcoma)) | combination Emax [8] | combination Emax (NCI-H2369 (Mesothelioma)) | combination Emax [9] | combination Emax [10] | combination Emax [11] | combination Emax [12] | combination Emax [13] | combination Emax (NCI-H2595 (Mesothelioma)) | combination Emax [14] | combination Emax [15] | combination Emax [16] | combination Emax [17] |
| --- | --- | --- | --- | --- | --- | --- | --- | --- | --- | --- | --- | --- | --- | --- | --- | --- | --- | --- | --- | --- |
| CN(CCO)CC[C@H](CSc1ccccc1)Nc1ccc(S(=O)(=O)NC(=O)c2ccc(N3CCC([C@@H](O)c4ccccc4-c4ccc(Cl)cc4)CC3)cc2)cc1S(=O)(=O)C(F)(F)F [AZD4320] + C1CN(CCC1(C(=O)N[C@@H](CCO)C2=CC=C(C=C2)Cl)N)C3=NC=NC4=C3C=CN4 [Capivasertib] (first compound max 1 µM, 7x7, partner max 3 µM) | 0.321 | 0.713 | 1 | 0.983 | 0.182 | 0.258 | 0.195 | 0.762 | 0.0543 | 0.859 | 0.812 | 0.404 | 0.376 | 0.578 | 0.0829 | 0.151 | 0.0801 | 0.341 | 0.324 | 0.754 |
| Cc1cc2ncnn2cc1Nc1ncc2c(n1)n(C1CCOCC1)c(=O)n2C [AZD7648] + CCN(CCO)CCCOc1ccc2c(Nc3cc(CC(=O)Nc4cccc(F)c4)[nH]n3)ncnc2c1 [AZD2811] (first compound max 10 µM, 7x7, partner max 1 µM) | 0.394 | 0.82 | 0.702 | 0.771 | 0.415 | 0.0476 | 0.26 | 0.855 | 0.209 | 0.235 | 0.426 | 0.375 | 0.477 | 0.29 | 0.201 | 0.203 | 0.234 | 0.671 | 0.507 | 0.291 |
| COc1nnc2ccc(N3CCC(c4ccc(OCCN5CCN(C)C(=O)[C@H]5C)cc4)CC3)nn12 [AZD5153] + C=CCn1c(=O)c2cnc(Nc3ccc(N4CCN(C)CC4)cc3)nc2n1-c1cccc(C(C)(C)O)n1 [AZD1775] (first compound max 1 µM, partner max 1 µM) | 0.383 | 0.847 | 1 | 0.951 | 0.473 | 0.68 | 0.358 | 0.795 | 0.943 | 0.461 | 0.826 | 0.996 | 0.612 | 0.429 | 0.24 | 0.371 | 0.636 | 0.478 | 0.728 | 0.402 |
| Cn1cnc2c(F)c(Nc3ccc(Br)cc3Cl)c(C(=O)NOCCO)cc21 [Selumetinib] + C=CCn1c(=O)c2cnc(Nc3ccc(N4CCN(C)CC4)cc3)nc2n1-c1cccc(C(C)(C)O)n1 [AZD1775] (first compound max 10 µM, partner max 1 µM) | 0.292 | 0.739 | 1 | 0.98 | 0.345 | 0.722 | 0.423 | 0.486 | 0.926 | 0.276 | 0.637 | 0.963 | 0.577 | 0.369 | 0.431 | 0.18 | 0.48 | 0.485 | 0.904 | 0.102 |
| CC(=O)c1c(C)c2cnc(Nc3ccc(N4CCNCC4)cn3)nc2n(C2CCCC2)c1=O [Palbociclib] + Cn1cnc2c(F)c(Nc3ccc(Br)cc3Cl)c(C(=O)NOCCO)cc21 [Selumetinib] (first compound max 10 µM, 7x7, partner max 10 µM) | 0.213 | 0.351 | 1 | 0.876 | 0.429 | 0.327 | 0.318 | 0.609 | 0.47 | 0.144 | 0.467 | 0.905 | 0.64 | 0.356 | 0.334 | 0.155 | 0.147 | 0.235 | 0.876 | 0.12 |
| Cc1cc2ncnn2cc1Nc1ncc2c(n1)n(C1CCOCC1)c(=O)n2C [AZD7648] + O=C(c1cc(Cc2n[nH]c(=O)c3ccccc23)ccc1F)N1CCN(C(=O)C2CC2)CC1 [Olaparib] (first compound max 10 µM, 7x7, partner max 10 µM) | 0.162 | 0.553 | 0.723 | 0.513 | 0.262 | 0.212 | 0.371 | 0.846 | 0.349 | 0.0731 | 0.386 | 0.279 | 0.266 | 0.165 | 0.11 | 0.116 | 0.0869 | 0.413 | 0.19 | 0.121 |
| CC1(C)CCC(CN2CCN(c3ccc(C(=O)NS(=O)(=O)c4ccc(NCC5CCOCC5)c([N+](=O)[O-])c4)c(Oc4cnc5[nH]ccc5c4)c3)CC2)=C(c2ccc(Cl)cc2)C1 [Venetoclax] + C[C@@H]1COCCN1C2=NC(=NC(=C2)C3(CC3)[S@](=N)(=O)C)C4=C5C=CNC5=NC=C4 [AZD6738] (first compound max 1 µM, 7x7, partner max 10 µM) | 0.593 | 0.809 | 1 | 0.994 | 0.5 | 0.585 | 0.508 | 0.941 | 0.879 | 0.233 | 0.91 | 0.924 | 0.624 | 0.22 | 0.666 | 0.249 | 0.886 | 0.451 | 0.677 | 0.344 |
| CN(CCO)CC[C@H](CSc1ccccc1)Nc1ccc(S(=O)(=O)NC(=O)c2ccc(N3CCC([C@@H](O)c4ccccc4-c4ccc(Cl)cc4)CC3)cc2)cc1S(=O)(=O)C(F)(F)F [AZD4320] + CCN(CCO)CCCOc1ccc2c(Nc3cc(CC(=O)Nc4cccc(F)c4)[nH]n3)ncnc2c1 [AZD2811] (first compound max 1 µM, 7x7, partner max 1 µM) | 0.478 | 0.766 | 1 | 0.98 | 0.102 | 0.15 | 0.283 | 1 | 0.196 | 0.378 | 0.908 | 0.27 | 0.813 | 0.803 | 0.183 | 0.125 | 0.257 | 0.741 | 0.414 | 0.578 |
| CC(=O)c1c(C)c2cnc(Nc3ccc(N4CCNCC4)cn3)nc2n(C2CCCC2)c1=O [Palbociclib] + Cc1c2c(nn1C)CSCc1cc(n(C)n1)CSc1cc(c3ccccc3c1)OCCCc1c(C(=O)O)n(C)c3c-2c(Cl)ccc13 [AZD5991] (first compound max 10 µM, 7x7, partner max 1 µM) | 0.157 | 0.94 | 0.955 | 0.846 | 0.382 | 0.203 | 0.212 | 0.714 | 0.567 | 0.199 | 0.752 | 0.843 | 0.455 | 0.223 | 0.204 | 0.225 | 0.669 | 0.403 | 0.658 | 0.161 |
| COc1nnc2ccc(N3CCC(c4ccc(OCCN5CCN(C)C(=O)[C@H]5C)cc4)CC3)nn12 [AZD5153] + CC1(C)CCC(CN2CCN(c3ccc(C(=O)NS(=O)(=O)c4ccc(NCC5CCOCC5)c([N+](=O)[O-])c4)c(Oc4cnc5[nH]ccc5c4)c3)CC2)=C(c2ccc(Cl)cc2)C1 [Venetoclax] (first compound max 1 µM, 7x7, partner max 1 µM) | 0.412 | 0.749 | 1 | 0.993 | 0.415 | 0.317 | 0.248 | 0.565 | 0.377 | 0.327 | 0.477 | 0.963 | 0.661 | 0.375 | 0.108 | 0.375 | 0.498 | 0.224 | 0.568 | 0.256 |
| COc1cccc(OCCCN)c1-c1cc(Nc2cnc(C#N)cn2)n[nH]1 [Prexasertib] + CN(C)CCCOc1ccc(-c2ccc3ncc4c(c3c2)n(C2CCOCC2)c(=O)n4C)cn1 [AZD0156] (first compound max 1 µM, 7x7, partner max 1 µM) | 0.543 | 0.923 | 1 | 0.923 | 0.394 | 0.683 | 0.468 | 0.838 | 0.933 | 0.29 | 0.927 | 0.988 | 0.743 | 0.136 | 0.705 | 0.1 | 0.935 | 0.45 | 0.824 | 0.33 |
| CN(CCO)CC[C@H](CSc1ccccc1)Nc1ccc(S(=O)(=O)NC(=O)c2ccc(N3CCC([C@@H](O)c4ccccc4-c4ccc(Cl)cc4)CC3)cc2)cc1S(=O)(=O)C(F)(F)F [AZD4320] + Cn1cnc2c(F)c(Nc3ccc(Br)cc3Cl)c(C(=O)NOCCO)cc21 [Selumetinib] (first compound max 1 µM, 7x7, partner max 3 µM) | 0.597 | 0.349 | 1 | 0.982 | 0.421 | 0.442 | 0.248 | 0.984 | 0.296 | 0.435 | 0.747 | 0.706 | 0.832 | 0.78 | 0.557 | 0.275 | 0.366 | 0.568 | 0.941 | 0.564 |
